Results: PMC12191596, “Gene Expression and Enzyme Kinetics of Polyphenol Oxidases in Strawberry and Their Possible Involvement in Enzymatic Browning Reactions in Strawberry Nectar” (Foods, 2025)
Values belong to the molecule of their own block, whether it stands above or below them.

Assays:
PPO4 (FaPPO 4) [1] = test: spectrophotometry, […] nm; type: biochemical, Fragaria vesca; details: 50 mM Tris-HCl pH 7, 1 mM SDS, 25 °C
PPO2 (FaPPO 2) [2] = test system: T1, PPO2 (FaPPO 2); test: spectrophotometry, […] nm; type: biochemical, Fragaria vesca; details: 50 mM Tris-HCl pH 7, 0.7 mM SDS, 25 °C
T1 construct: latent PPO, transit peptide removed, C-terminal shielding domain kept, N-terminal 6xHis tag, non-codon-optimized cDNA, pET28, E. coli BL21(DE3)

PPO1 (FaPPO 1) [3] = test system: T2, PPO1 (FaPPO 1); test: spectrophotometry, […] nm; type: biochemical; details: 50 mM Tris-HCl pH 7, 0.7 mM SDS, 25 °C
T2 construct: latent PPO, transit peptide removed, C-terminal shielding domain kept, N-terminal 6xHis tag, pET28, E. coli BL21(DE3)

PPO4 (FaPPO 4) [4] = test: spectrophotometry, […] nm; type: biochemical, Fragaria vesca; details: 50 mM Tris-HCl pH 7, 1 mM SDS, 25 °C; remark: listed apart in the source
PPO2 (FaPPO 2) [5] = test system: T1, PPO2 (FaPPO 2); test: spectrophotometry, […] nm; type: biochemical, Fragaria vesca; details: 50 mM Tris-HCl pH 7, 0.7 mM SDS, 25 °C; remark: listed apart in the source
PPO1 (FaPPO 1) [6] = test system: T2, PPO1 (FaPPO 1); test: spectrophotometry, […] nm; type: biochemical; details: 50 mM Tris-HCl pH 7, 0.7 mM SDS, 25 °C; remark: listed apart in the source
PPO4 (FaPPO 4) [7] = test: spectrophotometry, […] nm; type: biochemical, Fragaria vesca; details: 50 mM Tris-HCl pH 7, 1 mM SDS, 25 °C; remark: listed apart in the source
PPO2 (FaPPO 2) [8] = test system: T1, PPO2 (FaPPO 2); test: spectrophotometry, […] nm; type: biochemical, Fragaria vesca; details: 50 mM Tris-HCl pH 7, 0.7 mM SDS, 25 °C; remark: listed apart in the source
PPO1 (FaPPO 1) [9] = test system: T2, PPO1 (FaPPO 1); test: spectrophotometry, […] nm; type: biochemical; details: 50 mM Tris-HCl pH 7, 0.7 mM SDS, 25 °C; remark: listed apart in the source
PPO1 (FaPPO 1) [10] = test system: T2, PPO1 (FaPPO 1); test: spectrophotometry, […] nm; type: biochemical; details: 50 mM Tris-HCl pH 7, 0.7 mM SDS, 25 °C; remark: listed apart in the source
PPO4 (FaPPO 4) [11] = test: spectrophotometry, […] nm; type: biochemical, Fragaria vesca; details: 50 mM Tris-HCl pH 7, 1 mM SDS, 25 °C; remark: listed apart in the source
PPO2 (FaPPO 2) [12] = test system: T1, PPO2 (FaPPO 2); test: spectrophotometry, […] nm; type: biochemical, Fragaria vesca; details: 50 mM Tris-HCl pH 7, 0.7 mM SDS, 25 °C; remark: listed apart in the source
PPO1 (FaPPO 1) [13] = test system: T2, PPO1 (FaPPO 1); test: spectrophotometry, […] nm, Hill fit; type: biochemical; details: 50 mM Tris-HCl pH 7, 0.7 mM SDS, 25 °C, cooperative
PPO2 (FaPPO 2) [14] = test system: T1, PPO2 (FaPPO 2); test: spectrophotometry, […] nm, Hill fit; type: biochemical, Fragaria vesca; details: 50 mM Tris-HCl pH 7, 0.7 mM SDS, 25 °C, cooperative
PPO1 (FaPPO 1) [15] = test system: T2, PPO1 (FaPPO 1); test: spectrophotometry, […] nm; type: biochemical; details: 50 mM Tris-HCl pH 7, 0.7 mM SDS, 25 °C; remark: listed apart in the source
PPO4 (FaPPO 4) [16] = test: spectrophotometry, […] nm; type: biochemical, Fragaria vesca; details: 50 mM Tris-HCl pH 7, 1 mM SDS, 25 °C; remark: listed apart in the source
PPO2 (FaPPO 2) [17] = test system: T1, PPO2 (FaPPO 2); test: spectrophotometry, […] nm; type: biochemical, Fragaria vesca; details: 50 mM Tris-HCl pH 7, 0.7 mM SDS, 25 °C; remark: listed apart in the source

- Km (PPO4 (FaPPO 4) [1]): 870 ± 80 µM
- Km (PPO2 (FaPPO 2) [2]): 190 ± 40 µM
- Km (PPO1 (FaPPO 1) [3]): 120 ± 30 µM
SMILES: Oc1cc(O)c2c(c1)O[C@H](c1ccc(O)c(O)c1)[C@@H](O)C2 [Catechin]

SMILES: Oc1ccccc1O [Catechol]
- Km (PPO4 (FaPPO 4) [4]): 39000 ± 12000 µM
- Km (PPO2 (FaPPO 2) [5]): 7500 ± 600 µM
- Km (PPO1 (FaPPO 1) [6]): 27000 ± 2000 µM

- Km (PPO4 (FaPPO 4) [4]): 1300 ± 200 µM
- Km (PPO2 (FaPPO 2) [5]): 1300 ± 200 µM
- Km (PPO1 (FaPPO 1) [6]): 2700 ± 400 µM
SMILES: O=C(/C=C/c1ccc(O)c(O)c1)O[C@@H]1C[C@](O)(C(=O)O)C[C@@H](O)[C@H]1O [Chlorogenic acid]

SMILES: NCCc1ccc(O)c(O)c1 [Dopamine]
- Km (PPO4 (FaPPO 4) [7]): 990 ± 110 µM
- Km (PPO2 (FaPPO 2) [8]): 950 ± 120 µM
- Km (PPO1 (FaPPO 1) [9]): 600 ± 100 µM

- Km (PPO1 (FaPPO 1) [10]): 2000 ± 400 µM
- Km (PPO4 (FaPPO 4) [11]): 3200 ± 1600 µM
- Km (PPO2 (FaPPO 2) [12]): 5700 ± 1900 µM
SMILES: N[C@@H](Cc1ccc(O)c(O)c1)C(=O)O [L-DOPA]

- Km (PPO1 (FaPPO 1) [13]): 82 ± 4 µM
- Km (PPO2 (FaPPO 2) [14]): 600 ± 400 µM
SMILES: O=C(CCc1ccc(O)cc1)c1c(O)cc(O)cc1O [Phloretin]

SMILES: NCCc1ccc(O)cc1 [Tyramine]
- Km (PPO1 (FaPPO 1) [15]): 500 ± 100 µM
- Km (PPO4 (FaPPO 4) [16]): 1300 ± 100 µM
- Km (PPO2 (FaPPO 2) [17]): 600 ± 100 µM
